What was measured:
[1] = Partition coefficient (logP); type: physicochemical; conditions: octanol/water
[2] = test system: Tenebrio molitor; experiment: Tested for juvenile hormone mimetic activity in Tenebrio molitor (yellow mealworm) excluding from the analysis for activity against Tenebrio molitor; type: functional; set-up: unit not given here
[3] = test system: Tenebrio molitor; experiment: Tested for juvenile hormone mimetic activity in Tenebrio molitor (yellow mealworm) excluding from the analysis for activity against Aedes aegypti, Tenebrio molitor
[4] = test system: Tenebrio molitor; experiment: Tested for juvenile hormone mimetic activity in Tenebrio molitor (yellow mealworm) excluding from the analysis for activity against Anopheles aegypti; type: functional
[5] = test system: Tenebrio molitor; experiment: Juvenile hormone mimetic activity in Tenebrio molitor (yellow mealworm); type: functional; set-up: unit not given here
[6] = test system: Tenebrio molitor; experiment: Tested for juvenile hormone mimetic activity in Tenebrio molitor (yellow mealworm) excluding from the analysis for activity against […]); type: functional

Compound	logP ([1]; read-out: logP)	pI50 [5]	also measured
C#CCCOC(=O)/C=C(C)/C=C/CC(C)CCCC(C)(C)OC (stereo not drawn)	5.2	–	pI50 [2]: <1.11
CCC(=O)/C=C(C)/C=C/CC(C)CCCC(C)(C)O (stereo not drawn)	4.18	–	pI50 [2]: 6.04
CC(/C=C/CC(C)CCCC(C)C)=C\C(=O)OC(C)(C)C (stereo not drawn)	7.56	–	pI50 [3]: 1.01 uM pupa-1
CC(/C=C/CC(C)CCCC(C)C)=C\C(=O)OCc1ccccc1 (stereo not drawn)	7.87	–	pI50 [2]: <0.52
CCNC(=O)/C=C(C)/C=C/CC(C)CCCC(C)(C)O (stereo not drawn)	3.15	–	pI50 [4]: 5.22 uM pupa-1
CCC(C)C(=O)/C=C(C)/C=C/CC(C)CCCC(C)(C)OC (stereo not drawn)	6.02	3.54	–
COC(C)(C)CCCC(C)C/C=C/C(C)=C/C(=O)N(C)C (stereo not drawn)	3.74	3.8	–
CC(/C=C/CC(C)CCCC(C)C)=C\C(=O)N(C)C (stereo not drawn)	4.94	3.7	–
COC(C)(C)CCCC(C)C/C=C/C(C)=C/C(=O)OCCC(C)C (stereo not drawn)	7.03	0.81	–
CC(/C=C/CC(C)CCCC(C)C)=C\C(=O)c1ccccc1 (stereo not drawn)	7.26	3.52	–
CCC(C)OC(=O)/C=C(C)/C=C/CC(C)CCCC(C)(C)OC (stereo not drawn)	6.49	4.67	–
CCC(=O)/C=C(C)/C=C/CC(C)CCCC(C)(C)OC (stereo not drawn)	5.07	5.78	–
CC(C)=CCCC(C)C/C=C/C(C)=C/C(=O)OC(C)C (stereo not drawn)	6.6	3.67	–
CCSC(=O)/C=C(C)/C=C/CC(C)CCCC(C)(C)O (stereo not drawn)	5.89	3.43	–
CCOC(=O)/C=C(C)/C=C/CC(C)CCC(OC)C(C)C (stereo not drawn)	5.54	2.54	–
CCNC(=O)/C=C(C)/C=C/CC(C)CCCC(C)(C)OC (stereo not drawn)	4.04	–	pI50 [2]: 5.95
CCCC(=O)/C=C(C)/C=C/CC(C)CCCC(C)C (stereo not drawn)	6.81	4.7	–
CCSC(=O)/C=C(C)/C=C/CC(C)CCCC(C)C (stereo not drawn)	7.98	4.05	–
CC(=O)OC(C)(C)CCCC(C)C/C=C/C(C)=C/C(=O)OC(C)C (stereo not drawn)	5.98	3.81	–
COC(C)(C)CCCC(C)C/C=C/C(C)=C/C(=O)CC(C)C (stereo not drawn)	6.02	3.49	–
CCNC(=O)/C=C(C)/C=C/CC(C)CCC=C(C)C (stereo not drawn)	4.69	4.78	–
CC(/C=C/CC(C)CCCC(C)(C)OC(C)C)=C\C(=O)OC(C)C (stereo not drawn)	6.9	3.01	–
COC(C)(C)CCCC(C)C/C=C/C(C)=C/C(=O)OC(C)(C)C (stereo not drawn)	6.36	3.81	–
CC(/C=C/CC(C)CCCC(C)C)=C\C(=O)Oc1ccccc1 (stereo not drawn)	7.67	1.5	–

Compound	logP ([1]; read-out: logP)	pI50 [5]	also measured
CCOC(=O)/C=C(C)/C=C/CC(C)CCC(=O)C(C)C (stereo not drawn)	4.3	–	pI50 [2]: <0.45
C#CCSC(=O)/C=C(C)/C=C/CC(C)CCCC(C)(C)OC (stereo not drawn)	5.9	2.15	–
COC(CCC(C)C/C=C/C(C)=C/C(=O)OC(C)C)C(C)(C)OC (stereo not drawn)	4.75	3.88	–
CCOC(=O)/C=C(C)/C=C/CC(C)CCC1OC1(C)C (stereo not drawn)	4.76	2.22	–
CCOC(=O)/C=C(C)/C=C/CC(C)CCC(OC)C(C)(C)OC (stereo not drawn)	4.34	1.31	–
CC(/C=C/CC(C)CCCC(C)C)=C\C(=O)O (stereo not drawn)	5.95	–	pI50 [2]: <0.45
COC(=O)/C=C(C)/C=C/CC(C)CCCC(C)C (stereo not drawn)	6.2	2.2	–
CC(/C=C/CC(C)CCCC(C)C)=C\C(=O)OC(C)C (stereo not drawn)	7.15	4.03	–
COC(C)(C)CCCC(C)C/C=C/C(C)=C/C(=O)SC (stereo not drawn)	6.24	3.47	–
C=CCSC(=O)/C=C(C)/C=C/CC(C)CCCC(C)(C)OC (stereo not drawn)	6.77	2.06	–
CCC(=O)/C=C(C)/C=C/CC(C)CCCC(C)C (stereo in doubt; 83)	6.27	4.89	–
CCOC(=O)/C=C(C)/C=C/CC(C)CCCC(C)(C)SC (stereo not drawn)	6.36	2.24	–
CCN(CC)C(=O)/C=C(C)/C=C/CC(C)CCC1OC1(C)C (stereo not drawn)	4.04	3.85	–
CC(/C=C/CC(C)CCCC(C)(C)OC=O)=C\C(=O)OC(C)C (stereo not drawn)	5.4	4.43	–
CCOC(=O)/C=C(C)/C=C/CC(C)CCCC(C)(C)O (stereo not drawn)	4.65	–	pI50 [6]: ~0.54 uM pupa-1
CCCC(=O)/C=C(C)/C=C/CC(C)CCCC(C)(C)OC (stereo not drawn)	5.61	5.73	–
COC(C)(C)CCCC(C)C/C=C/C(C)=C/C(=O)NC(C)C (stereo not drawn)	4.45	4.21	–
CSC(C)(C)CCCC(C)C/C=C/C(C)=C/C(=O)OC(C)C (stereo not drawn)	6.77	3.77	–
COC(CCC(C)C/C=C/C(C)=C/C(=O)OC(C)C)C(C)C (stereo not drawn)	5.95	3.82	–
CCC(=O)/C=C(C)/C=C/CC(C)CCCC(C)C (stereo in doubt; 101)	–	4.1	logP [1]: 6.68
COC(C)(C)CCCC(C)C/C=C/C(C)=C/C(=O)OC1CCCC1 (stereo not drawn)	7.01	4.32	–
CCC(C)OC(=O)/C=C(C)/C=C/CC(C)CCCC(C)C (stereo not drawn)	7.69	3.87	–
C=CCOC(=O)/C=C(C)/C=C/CC(C)CCCC(C)(C)OC (stereo not drawn)	5.53	1.41	–
CC(/C=C/CC(C)CCCC(C)C)=C\C(=O)NC(C)C (stereo not drawn)	5.65	4.33	–

Compound	logP ([1]; read-out: logP)	pI50 [5]	also measured
COC(C)(C)C(O)CCC(C)C/C=C/C(C)=C/C(=O)OC(C)C (stereo not drawn)	3.86	2.61	–
CCNC(=O)OC(C)(C)CCCC(C)C/C=C/C(C)=C/C(=O)OC(C)C (stereo not drawn)	6.06	1.79	–
COC(C)(C)CCCC(C)C/C=C/C(C)=C/C(=O)C1N=N1 (stereo not drawn)	–	–	pI50 [3]: 6.12 uM pupa-1
CCSC(=O)/C=C(C)/C=C/CC(C)CCCC(C)(C)OC (stereo not drawn)	6.78	3.49	–
CCNC(=O)/C=C(C)/C=C/CC(C)CCCC(C)(C)C (stereo not drawn)	5.65	4.45	–
C#CCOC(=O)/C=C(C)/C=C/CC(C)CCCC(C)(C)OC (stereo not drawn)	4.66	1.34	–
COC(C)(C)CCCC(C)C/C=C/C(C)=C/C(N)=O (stereo not drawn)	3.52	0.05	–
CCNC(=O)OC(C)(C)CCCC(C)C/C=C/C(C)=C/C(=O)OCC (stereo not drawn)	5.65	–	pI50 [2]: <0.55
C=CCSC(=O)/C=C(C)/C=C/CC(C)CCCC(C)C (stereo not drawn)	7.97	3.26	–
CCN(CC)C(=O)/C=C(C)/C=C/CC(C)CCCC(C)C (stereo not drawn)	6.02	4.63	–
CCOC(=O)/C=C(C)/C=C/CC(C)CCC(SCC)C(C)C (stereo not drawn)	6.9	–	pI50 [2]: 1.51
CC(/C=C/CC(C)CCCC(C)C)=C\C(=O)C1N=N1 (stereo not drawn)	–	–	pI50 [3]: 5.15 uM pupa-1
CCOC(=O)/C=C(C)/C=C/CC(C)CCCC(C)(C)OC(C)=O (stereo not drawn)	5.57	2.28	–
CCOC(=O)/C=C(C)/C=C/CC(C)CCC(O)C(C)C (stereo not drawn)	4.65	–	pI50 [2]: <0.45
C=C(C)CCCC(C)C/C=C/C(C)=C/C(=O)OCC (stereo not drawn)	6.19	2.49	–
COC(C)(C)CCCC(C)C/C=C/C(C)=C/C(=O)NC1CC1 (stereo not drawn)	–	3.74	logP [1]: 4.04
COC(=O)/C=C(C)/C=C/CC(C)CCCC(C)(C)OC (stereo not drawn)	5	0.89	–
CC(/C=C/CC(C)CCCC(C)C)=C\C(=O)CC(C)C (stereo not drawn)	7.22	3.14	–
C#CCSC(=O)/C=C(C)/C=C/CC(C)CCCC(C)C (stereo not drawn)	5.07	3.47	–
CC(/C=C/CC(C)CCCC(C)C)=C\C(=O)NCC(C)C (stereo not drawn)	6.19	0.62	–
CCSC(=O)/C=C(C)/C=C/CC(C)CCCC(C)(C)OC(C)=O (stereo not drawn)	6.81	2.83	–
COC(C)(C)CCCC(C)C/C=C/C(C)=C/C(=O)SC(C)C (stereo not drawn)	7.19	5.04	–

From ChEMBL document CHEMBL1122770, “Quantitative structure-activity relationship of insect juvenile hormone mimetic compounds” (J Med Chem, 1984)
